Data on 34 compounds can be found in BindingDB's records for patent US20250313563 (The Broad Institute, 2025).

pIC50: −log10 of the molar value. Values joined by “and” are separate entries in the source; they are usually repeats but may differ in a detail not shown here. Equal values may be shown once.

Assay [1] deals with Glycogen synthase kinase-3 alpha (Homo sapiens, UniProt P49840). Briefly: TR-FRET Assay. In outline: (§1)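 Compound was preincubated 30 min in assay buffer before the kinase reaction, which was quenched with EDTA. Phosphorylation was detected by TR-FRET after adding a solution of 40 nM streptavidin-d2 and 2 nM Tb-labelled anti-pSer641 antibody.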
Sequence of Glycogen synthase kinase-3 alpha (P49840 whole entry): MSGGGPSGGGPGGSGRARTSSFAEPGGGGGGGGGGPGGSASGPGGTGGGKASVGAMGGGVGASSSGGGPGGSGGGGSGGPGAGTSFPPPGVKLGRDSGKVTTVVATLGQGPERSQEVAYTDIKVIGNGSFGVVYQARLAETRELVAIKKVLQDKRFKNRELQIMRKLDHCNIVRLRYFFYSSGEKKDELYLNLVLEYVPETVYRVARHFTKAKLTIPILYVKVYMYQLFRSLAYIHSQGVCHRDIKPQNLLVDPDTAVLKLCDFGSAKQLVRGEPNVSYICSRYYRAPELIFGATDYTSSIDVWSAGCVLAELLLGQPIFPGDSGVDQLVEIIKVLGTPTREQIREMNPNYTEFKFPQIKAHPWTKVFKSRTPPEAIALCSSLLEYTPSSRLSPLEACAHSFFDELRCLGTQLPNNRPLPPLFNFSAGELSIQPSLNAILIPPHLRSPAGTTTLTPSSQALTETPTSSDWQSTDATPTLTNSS
Assay [2] concerns the target Glycogen synthase kinase-3 beta (Homo sapiens, UniProt P49841). The assay is described as follows: TR-FRET Assay. In outline: as §1

Sequence of Glycogen synthase kinase-3 beta (P49841 whole entry): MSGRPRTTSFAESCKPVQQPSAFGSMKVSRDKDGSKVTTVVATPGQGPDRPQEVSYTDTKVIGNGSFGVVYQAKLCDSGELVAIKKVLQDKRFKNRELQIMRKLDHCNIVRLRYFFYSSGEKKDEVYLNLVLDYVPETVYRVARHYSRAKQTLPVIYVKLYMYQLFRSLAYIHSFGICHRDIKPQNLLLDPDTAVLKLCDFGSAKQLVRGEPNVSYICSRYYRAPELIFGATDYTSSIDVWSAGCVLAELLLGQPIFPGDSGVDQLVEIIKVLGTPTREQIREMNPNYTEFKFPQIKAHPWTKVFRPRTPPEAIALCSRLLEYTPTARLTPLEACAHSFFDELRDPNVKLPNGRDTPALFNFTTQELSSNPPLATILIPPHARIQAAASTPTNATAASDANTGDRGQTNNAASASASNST

For the compound `CCCc1cc(-c2cccc(C3(CC)C4=CN=NC4NC4=C3C(=O)CC(C)(C)C4)c2)ccn1` (stereo not drawn) [US20250313563, Compound 945467], the pIC50 is over 7.00 in assay [1] and 6.00 to 7.00 in assay [2].
Taken in the same sequence, the figures for `COc1ccc(S(=O)(=O)N2CCC[C@@]3(CC2)C2=CN=NC2NC2=C3C(=O)CC(C)(C)C2)cc1` (stereo partly drawn) [US20250313563, Compound 932661] were over 7.00 and 6.00 to 7.00.
In the same order, the values of `CC[C@H]1C[C@]2(CCO1)C1=C(N=NC1)NC1=C2C(=O)CC(C)(C)C1` [US20250313563, Compound 907329] are 6.00 to 7.00 and 5.30 to 6.00.
For `CC[C@@]1(c2cccc(C(F)(F)F)c2)C2=C(CC(C)(C)CC2=O)NC2N=NC(C)=C21` (stereo partly drawn) [US20250313563, Compound 810367], the negative-log IC50 (pIC50) in assay [1] and in assay [2] was over 7.00 in each case.
For `CC[C@@]1(c2ccccc2)C2=CN=NC2NC2=C1C(=O)[C@@H](C)C[C@@H]2C` (stereo partly drawn) [US20250313563, Compound 865198], the pIC50 is 6.00 to 7.00 in assay [1] and 5.30 to 6.00 in assay [2].
For the compound `COCCn1cc(S(=O)(=O)N2CCC3(CC2)C2=C(N=NC2)NC2=C3C(=O)CC(C)(C)C2)cn1` [US20250313563, Compound 947477], the negative logarithm of the IC50 (pIC50) in assay [1] and in assay [2] was over 7.00 in each case.
With `CC[C@@]1(c2cccc([C@@H](C)c3ncccn3)c2)C2=CN=NC2NC2=C1C(=O)CC(C)(C)C2` (stereo partly drawn) [US20250313563, Compound 948061], the negative logarithm of the IC50 (pIC50) in assay [1] was 6.00 to 7.00; in assay [2], 5.30 to 6.00.
Taken in the same sequence, the figures for `CCC1(c2cccc(Br)c2)C2=CN=NC2NC2=C1C(=O)CC(C(F)(F)F)C2` (stereo not drawn) [US20250313563, Compound 819565] were 6.00 to 7.00 and 6.00 to 7.00.
Regarding `CC[C@]1(c2cccc(-c3ccnc4cc(F)c(F)cc34)c2)C2=CN=NC2NC2=C1C(=O)NC(C)(C)C2` (stereo partly drawn) [US20250313563, Compound 948664], the pIC50 in assay [1] was 5.30 to 6.00; in assay [2] it was under 5.30.
Taken in the same sequence, the figures for `C[C@@H]1C[C@@]2(CCO1)C1=C(N=NC1)NC1=C2C(=O)CC(C)(C)C1` [US20250313563, Compound 899559] were 6.00 to 7.00 and 5.30 to 6.00.
Taken in the same sequence, the figures for `CC[C@@]1(c2cccc(-c3ccnn3C)c2)C2=CN=NC2NC2=C1C(=O)NC1(CCCC1)C2` (stereo partly drawn) [US20250313563, Compound 948018] were over 7.00 and over 7.00.
In the case of `CC1(C)CC(=O)C2=C(C1)NC1=C(CN=N1)C21CCN(S(=O)(=O)c2cccc(Cl)c2F)CC1` [US20250313563, Compound 948118], the pIC50 is over 7.00 in assay [1]; > 7.00 and 6.00 to 7.00 in assay [2].
In the case of `CCC1(c2cccc(N(C)C(=O)C3CCCCC3)c2)C2=CN=NC2NC2=C1C(=O)CC(C)(C)C2` (stereo not drawn) [US20250313563, Compound 912065], the pIC50 in assay [1] was over 7.00; in assay [2], 6.00 to 7.00.
In the same order, the values of `CCC1(c2cccc(S(=O)(=O)C(C)C)c2)C2=C(CC(C)(C)NC2=O)NC2N=NC(C)=C21` (stereo not drawn) [US20250313563, Compound 947396] are over 7.00 and over 7.00.
On to `CCC1(c2cccc(-c3c(C)nnn3C)c2)C2=C(N=NC2)NC2=C1C(=O)C(C)(C)C2` (stereo not drawn) [US20250313563, Compound 950815], for which the figures for the negative logarithm of the IC50 (pIC50) in assay [1] and in assay [2] were 6.00 to 7.00 and 5.30 to 6.00, respectively.
In the same order, the values of `CC[C@]1(c2cccc(N3CCCCC3)c2)C2=C(CC(C)(C)CC2=O)NC2N=NC(C(F)(F)F)=C21` (stereo partly drawn) [US20250313563, Compound 816800] are over 7.00 and over 7.00.
In the same order, the values of `CC[C@@]1(c2cccc(C(F)(F)F)c2)C2=CN=NC2NC2=C1C(=O)N(c1ccc(F)cc1)CC2` (stereo partly drawn) [US20250313563, Compound 948225] are 5.30 to 6.00 and under 5.30.
For the compound `CC1(C)CC(=O)C2=C(C1)NC1=C(CN=N1)C21COC2(CN(C(=O)C(F)(F)F)C2)C1` (stereo not drawn) [US20250313563, Compound 947280], the pIC50 in assay [1] and in assay [2] was over 7.00 each time.
Take `CC(C)(C)CC1N=NC2=C1[C@](C)(c1cccc(S(=O)(=O)CC3CC3)c1)C1=C(CC(C)(C)NC1=O)N2` (stereo partly drawn) [US20250313563, Compound 108005]: the negative-log IC50 (pIC50) in assay [1] and in assay [2] was 6.00 to 7.00 in each case.
Take `CC[C@]1(c2cccc(C(F)(F)F)c2)C2=CN=NC2NC2=C1C(=O)N[C@@H](C)C2` (stereo partly drawn) [US20250313563, Compound 912097]: the figures for the pIC50 in assay [1] and in assay [2] were 6.00 to 7.00 and under 5.30, respectively.
Taken in the same sequence, the figures for `CC[C@@]1(c2cccc(N3CCC3(C)C)c2)C2=CN=NC2NC2=C1C(=O)CC(C)(C)C2` (stereo partly drawn) [US20250313563, Compound 913141] were 6.00 to 7.00 and 5.30 to 6.00.
In the same order, the values of `CCc1cccc(C2(CC)C3=C(N=NC3)NC3=C2C(=O)CC(C)(C)C3)c1` (stereo not drawn) [US20250313563, Compound 949083] are over 7.00 and 6.00 to 7.00.
In the case of `CC1(C)CC2=C(C(=O)[C@@H]1F)C1(CCOCC1)C1=C(N=NC1)N2` [US20250313563, Compound 883835], the negative logarithm of the IC50 (pIC50) in assay [1] and in assay [2] was 6.00 to 7.00 each time.
Turning to `C[C@@H]1C[C@H](C)C[C@]2(C1)C1=C(N=NC1)NC1=C2C(=O)CC(C)(C)C1` [US20250313563, Compound 884113], the negative-log IC50 (pIC50) in assay [1] is 6.00 to 7.00; in assay [2], 5.30 to 6.00.
In the same order, the values of `CC1(C)CC(=O)C2=C(C1)NC1=C(CN=N1)[C@]21CCN(S(C)(=O)=O)C1` [US20250313563, Compound 942432] are over 7.00 and over 7.00.
In the same order, the values of `CCC1(c2cccc(-c3ncnc(C)c3C)c2)C2=CN=NC2NC2=C1C(=O)CC(C)(C)C2` (stereo not drawn) [US20250313563, Compound 948090] are over 7.00 and 6.00 to 7.00.
In the same order, the values of `CC(=O)N1CCCC2(CC1)C1=CN=NC1NC1=C2C(=O)CC(C)(C)C1` (stereo not drawn) [US20250313563, Compound 889575] are 6.00 to 7.00 and 5.30 to 6.00.
In the case of `CC1(C)CC(=O)C2=C(C1)NC1=C(CN=N1)[C@@]21CCO[C@H](C(F)(F)F)C1` [US20250313563, Compound 884022], the negative-log IC50 (pIC50) in assay [1] and in assay [2] was 6.00 to 7.00 in each case.
Turning to `CC[C@]1(c2cccc(N(C)c3ncccn3)c2)C2=C(CC(C)(C)NC2=O)NC2N=NC(F)=C21` (stereo partly drawn) [US20250313563, Compound 949647], the pIC50 is 6.00 to 7.00 in assay [1] and under 5.30 in assay [2].
Consider `CC(=O)N1CC2(C1)CC1(CO2)C2=C(N=NC2)NC2=C1C(=O)CC(C)(C)C2` (stereo not drawn) [US20250313563, Compound 913058], for which the negative-log IC50 (pIC50) in assay [1] was over 7.00; in assay [2] it was > 7.00 and 6.00 to 7.00.
As for `Cc1cccc2c1CCC21C2=C(N=NC2)NC2=C1C(=O)CC(C)(C)C2` (stereo not drawn) [US20250313563, Compound 806603], the pIC50 in assay [1] is over 7.00; in assay [2] it was 6.00 to 7.00.
Turning to `CC[C@@]1(c2cccc(S(=O)(=O)C(C)C)c2)C2=CN=NC2NC2=C1C(=O)NC(C)(C)C2` (stereo partly drawn) [US20250313563, Compound 947823], the results for the negative logarithm of the IC50 (pIC50) in assay [1] and in assay [2] were 6.00 to 7.00 and 5.30 to 6.00, respectively.
In the same order, the values of `CC[C@@]1(c2cccc(-c3cnn(CCN4CCCC4)c3)c2)C2=CN=NC2NC2=C1C(=O)NC(C)(C)C2` (stereo partly drawn) [US20250313563, Compound 952022] are 6.00 to 7.00 and 5.30 to 6.00.
Consider `CO[C@H]1C[C@]2(C1)C1=C(N=NC1)NC1=C2C(=O)CC(C)(C)C1` [US20250313563, Compound 901472], for which the pIC50 in assay [1] and in assay [2] was under 5.30 each time.
